Values of other authors as cited in paper PMC12356143 (RSC Medicinal Chemistry, 2025).

Tests used:
M^pro WT = settings: literature value; cited from earlier work
FIPV M^pro = settings: literature value; cited from earlier work

Molecule | K M (M^pro WT) | k cat (M^pro WT) | IC50 (FIPV M^pro) [nM]
2-Abz-SVTLQ↓SGY^(NO2)R-OH | 80 × 10^−6 (lit. [10]) M | 2.25 ± 0.1 (lit. [10]) s^−1 | 
Dabcyl-KTSAVLQ↓SGFRKME(Edans)-NH2 [Dabcyl-KTSAVLQ↓S GFRKME(Edans)-NH2] | 4.6 × 10^−6 (lit. [23]) M | 0.29 ± 0.03 (lit. [23]) s^−1 | 
CC(C)CC(NC(=O)OCc1ccccc1)C(=O)NC(CC1CCNC1=O)C(O)S(=O)(=O)O (stereo not shown) [GC376] |  |  | 130 ± 20
O=C(NC(CC1CC1)C(=O)NC(CC1CCNC1=O)C(O)S(=O)(=O)O)OCCc1cccc(Cl)c1 (stereo not shown) [compound 5] |  |  | 50 ± 20
COc1cccc2[nH]c(C(=O)NC(CC3CC3)C(=O)NC(CC3CCNC3=O)C(O)S(=O)(=O)O)cc12 (stereo not shown) [compound 4] |  |  | 60 ± 20
